Drawing on patent publication US9567302B2, “Carbamate compounds and of making and using same” (Abide Therapeutics, Inc., priority 2012, dated 2017), this text covers IC50 and inhibition for 18 molecules.

Where only a bound is given, the exact number is not on record here.

As a reminder, the IC50 is the point on the concentration scale where inhibition reaches its midpoint. Usually inhibition stands for the relative decrease from the control value, in per cent.

Assay type in all cases: biochemical
Assay [1] has as its target T1, ABHD6 (Mus musculus, UniProt Q8R2Y0).
T1 sequence (Q8R2Y0 1-336): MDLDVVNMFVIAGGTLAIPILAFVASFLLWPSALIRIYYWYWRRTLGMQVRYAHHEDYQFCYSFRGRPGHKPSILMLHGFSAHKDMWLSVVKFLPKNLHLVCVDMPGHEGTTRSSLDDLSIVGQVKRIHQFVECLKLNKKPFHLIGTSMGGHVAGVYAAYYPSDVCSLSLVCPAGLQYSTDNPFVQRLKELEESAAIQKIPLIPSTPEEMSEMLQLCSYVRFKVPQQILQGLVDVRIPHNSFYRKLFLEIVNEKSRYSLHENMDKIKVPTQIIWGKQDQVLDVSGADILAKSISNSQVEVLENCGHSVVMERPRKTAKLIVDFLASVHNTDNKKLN
Nature of the assay: In vitro competitive activity-based protein profiling (FP-Rh), mouse ABHD6. The settings on record: Table 1, mouse proteome, 30 min preincubation at 37° C. More on the design: from tissue; host or cells: mouse brain membrane fraction. How it is done: (§1) In Vitro Competitive Activity-Based Protein Profiling.
(§2) Proteomes (mouse brain membrane fraction or cell lysates) (50 μL, 1.0 mg/ml total protein concentration) were preincubated with varying concentrations of inhibitors at 37° C. After 30 min, FP-Rh (1.0 μL, 50 μM in DMSO) was added and the mixture was incubated for another 30 min at 37° C. Reactions were quenched with SDS loading buffer (50 μL—4×) and run on SDS-PAGE.

Assay [2] deals with T2, FAAH (Mus musculus, UniProt O08914).
T2 sequence (O08914 1-579): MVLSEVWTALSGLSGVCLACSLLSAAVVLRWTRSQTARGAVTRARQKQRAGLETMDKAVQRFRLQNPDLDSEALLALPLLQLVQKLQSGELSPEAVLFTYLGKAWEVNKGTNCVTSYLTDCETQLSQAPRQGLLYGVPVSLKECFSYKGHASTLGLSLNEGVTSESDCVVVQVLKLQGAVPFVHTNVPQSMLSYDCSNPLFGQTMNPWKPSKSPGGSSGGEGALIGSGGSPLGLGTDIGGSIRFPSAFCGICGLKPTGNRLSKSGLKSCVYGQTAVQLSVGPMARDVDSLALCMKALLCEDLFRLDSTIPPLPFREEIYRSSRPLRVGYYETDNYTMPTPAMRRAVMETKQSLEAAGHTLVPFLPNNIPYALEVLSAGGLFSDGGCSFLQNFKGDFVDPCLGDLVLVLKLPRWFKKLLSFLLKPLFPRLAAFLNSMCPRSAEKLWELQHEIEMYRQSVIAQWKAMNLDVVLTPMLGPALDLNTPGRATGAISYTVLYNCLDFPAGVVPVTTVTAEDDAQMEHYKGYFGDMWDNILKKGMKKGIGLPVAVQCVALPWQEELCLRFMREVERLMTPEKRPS
Nature of the assay: In vitro competitive activity-based protein profiling (FP-Rh), mouse FAAH. More on the design: from tissue; host or cells: mouse brain membrane fraction. The settings on record: Table 1, mouse proteome, 30 min preincubation at 37° C. How it is done:
as §1, §2

In assay [3] the target is T3, hMAGL (Homo sapiens, UniProt Q99685).
T3 construct: expressed in transfected cells; host or cells: HEK293T
T3 sequence (Q99685 1-303): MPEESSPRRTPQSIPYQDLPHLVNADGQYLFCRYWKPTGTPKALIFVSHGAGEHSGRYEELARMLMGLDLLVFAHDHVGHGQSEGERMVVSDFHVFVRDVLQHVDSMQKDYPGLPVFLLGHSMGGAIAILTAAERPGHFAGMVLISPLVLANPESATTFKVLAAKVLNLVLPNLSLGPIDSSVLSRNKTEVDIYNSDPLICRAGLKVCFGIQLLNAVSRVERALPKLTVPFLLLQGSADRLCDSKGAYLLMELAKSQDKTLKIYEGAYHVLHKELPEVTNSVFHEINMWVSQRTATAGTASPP
Nature of the assay: Competitive ABPP with human MAGL recombinantly expressed in HEK293T cells. The note with it: Table 1; hMAGL-HEK293T cell lysates. The method, then: as §2
Recombinant Expression of Human MAGL in HEK293T Cells.
Cell lysates were diluted with mock proteomes for use in competitive ABPP experiments.

Assay [4] addresses T4, MAGL (Mus musculus, UniProt O35678).
T4 sequence (O35678 1-303): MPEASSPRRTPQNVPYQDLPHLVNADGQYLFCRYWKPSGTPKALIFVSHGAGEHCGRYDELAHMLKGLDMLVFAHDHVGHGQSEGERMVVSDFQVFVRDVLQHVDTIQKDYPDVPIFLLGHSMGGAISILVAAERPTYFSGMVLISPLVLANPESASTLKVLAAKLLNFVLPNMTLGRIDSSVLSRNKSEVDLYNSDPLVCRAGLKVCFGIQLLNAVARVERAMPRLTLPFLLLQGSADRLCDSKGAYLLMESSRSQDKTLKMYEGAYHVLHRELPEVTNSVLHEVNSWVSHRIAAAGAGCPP
Kind of assay: In vitro competitive activity-based protein profiling (FP-Rh), mouse MAGL. Also noted: from tissue; host or cells: mouse brain membrane fraction. The note with it: Table 1, mouse proteome, 30 min preincubation at 37° C. The method, then:
as §1, §2

Assay [5] has as its target T2, FAAH. Kind of assay: In vitro competitive ABPP, % inhibition at fixed concentration, FAAH. Also noted: from tissue. Put shortly: (§3)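 Mouse brain membrane proteome or cell lysate at 1.0 mg/ml was preincubated with inhibitor for 30 min at 37° C, then labelled with FP-Rh for another 30 min. After SDS-PAGE, activity was quantified from the fluorescent intensity of the MAGL, ABHD6 and FAAH bands.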

Assay [6] addresses T1, ABHD6. Kind of assay: In vitro competitive ABPP, % inhibition at fixed concentration, ABHD6. Also noted: from tissue. Put shortly: as §3
In assay [7] the target is T4, MAGL. Kind of assay: In vitro competitive ABPP, % inhibition at fixed concentration, MAGL. Also noted: from tissue. Put shortly: as §3

Take `COc1ccc(N2CCN(C(=O)ON3C(=O)CCC3=O)CC2)cc1` [Example 5, 2,5-Dioxopyrrolidin-1-yl 4-(4-methoxyphenyl)piperazine-1-carboxylate]: the IC50 is 1000 to 10000 nM in assay [1], above 10000 nM in assay [2], 1 to 10 µM in assay [3] and 1000 to 10000 nM in assay [4].

Turning to `O=C(ON1C(=O)CCC1=O)N1CCN(Cc2cccc(Oc3ccccc3)c2)CC1` [Example 7, 2,5-Dioxopyrrolidin-1-yl 4-[(3-phenoxyphenyl)methyl]piperazine-1-carboxylate], the IC50 in assay [1] is below 100 nM; in assay [2], 1000 to 10000 nM; in assay [3], below 0.1 µM; in assay [4], below 100 nM.

On to `O=C(ON1C(=O)CCC1=O)N1CCC(CCc2ccc(Cl)cc2)CC1` [Example 8, 2,5-Dioxopyrrolidin-1-yl 4-[2-(4-chlorophenyl)ethyl]piperidine-1-carboxylate], for which the IC50 in assay [1] is below 100 nM; in assay [2] it was 100 to 1000 nM; in assay [3] it was below 0.1 µM; in assay [4], below 100 nM.

With `O=C(ON1C(=O)CCC1=O)N1CCN(Cc2ccccc2Oc2ccccc2)CC1` [Example 35, 2,5-Dioxopyrrolidin-1-yl 4-[(2-phenoxyphenyl)methyl]piperazine-1-carboxylate], the IC50 in assay [1] is below 100 nM; in assay [2], 1000 to 10000 nM; in assay [3], below 0.1 µM; in assay [4] it was below 100 nM.

As to `O=C(CN1CCN(C(=O)ON2C(=O)CCC2=O)CC1)Nc1cc(C(F)(F)F)ccc1Cl` [Example 36, 2,5-Dioxopyrrolidin-1-yl 4-(2-((2-chloro-5-(trifluoromethyl)phenyl)amino)-2-oxoethyl)piperazine-1-carboxylate], the IC50 was 1000 to 10000 nM in assay [1], 1000 to 10000 nM in assay [2], below 0.1 µM in assay [3] and below 100 nM in assay [4].

Consider `O=C(ON1C(=O)CCC1=O)N1CCN(Cc2ccc(Br)cc2Oc2ccccc2)CC1` [Example 37, 2,5-Dioxopyrrolidin-1-yl 4-[(4-bromo-2-phenoxyphenyl)methyl]piperazine-1-carboxylate], for which the IC50 in assay [1] is 100 to 1000 nM; in assay [2], 1000 to 10000 nM; in assay [3] it was below 0.1 µM; in assay [4], below 100 nM.

Consider `O=C(ON1C(=O)CCC1=O)N1CCN(Cc2ccc(Cl)c(C(=O)N3CCOCC3)c2)CC1` [Example 209, 2,5-Dioxopyrrolidin-1-yl 4-{[4-chloro-3-(morpholine-4-carbonyl)phenyl]methyl}piperazine-1-carboxylate], for which the inhibition at 1 µM in assay [5], in assay [6] and in assay [7] was below 25% each time.

For the molecule `O=C(ON1C(=O)CCC1=O)N1CCN(Cc2ccc(Cl)c(C(=O)N3CCC3)c2)CC1` [Example 210, 2,5-Dioxopyrrolidin-1-yl 4-{[3-(azetidine-1-carbonyl)-4-chlorophenyl]methyl}piperazine-1-carboxylate], the inhibition at 1 µM in assay [5] was below 25%; in assay [6], 25 to 75%; in assay [7], below 25%.

Consider `O=C(ON1C(=O)CCC1=O)N1CCN(C(=O)c2cccc(Cl)c2)CC1` [Example 211, 2,5-Dioxopyrrolidin-1-yl 4-(3-chlorobenzoyl)piperazine-1-carboxylate], for which the values for the inhibition at 10 µM in assay [5], in assay [6] and in assay [7] were below 25%, 25 to 75% and 25 to 75%, respectively.

Consider `O=C(ON1C(=O)CCC1=O)N1CCN(C(=O)c2ccccc2)CC1` [Example 212, 2,5-Dioxopyrrolidin-1-yl 4-benzoylpiperazine-1-carboxylate], for which the inhibition at 10 µM in assay [5] was below 25%; in assay [6], below 25%; in assay [7] it was 25 to 75%.

Consider `O=C(CN1CCCCC1)N1CCN(C(=O)ON2C(=O)CCC2=O)CC1` [Example 213, 2,5-Dioxopyrrolidin-1-yl 4-[2-(piperidin-1-yl)acetyl]piperazine-1-carboxylate], for which the inhibition at 10 µM in assay [5], in assay [6] and in assay [7] was below 25% in each case.

Turning to `O=C(CN1CCCC1)N1CCN(C(=O)ON2C(=O)CCC2=O)CC1` [Example 214, 2,5-Dioxopyrrolidin-1-yl 4-[2-(pyrrolidin-1-yl)acetyl]piperazine-1-carboxylate], the inhibition at 10 µM in assay [5], in assay [6] and in assay [7] was below 25% throughout.

For the molecule `O=C(CN1CCOCC1)N1CCN(C(=O)ON2C(=O)CCC2=O)CC1` [Example 215, 2,5-Dioxopyrrolidin-1-yl 4-[2-(morpholin-4-yl)acetyl]piperazine-1-carboxylate], the inhibition at 10 µM in assay [5], in assay [6] and in assay [7] was below 25% throughout.

With `O=C(CN1CCC1)N1CCN(C(=O)ON2C(=O)CCC2=O)CC1` [Example 216, 2,5-Dioxopyrrolidin-1-yl 4-[2-(azetidin-1-yl)acetyl]piperazine-1-carboxylate], the inhibition at 10 µM in assay [5], in assay [6] and in assay [7] was below 25% throughout.

Regarding `O=C(ON1C(=O)CCC1=O)N1CCC(N2CCCC2)CC1` [Example 217, 2,5-Dioxopyrrolidin-1-yl 4-(pyrrolidin-1-yl)piperidine-1-carboxylate], the inhibition at 10 µM in assay [5], in assay [6] and in assay [7] was below 25% throughout.

Consider `O=C(ON1C(=O)CCC1=O)N1CCC(N2CCCCC2)CC1` [Example 218, 2,5-Dioxopyrrolidin-1-yl 4-(piperidine-1-yl)piperidine-1-carboxylate], for which the inhibition at 10 µM in assay [5], in assay [6] and in assay [7] was below 25% each time.

Turning to `O=C(ON1C(=O)CCC1=O)N1CCC(N2CCCC2=O)CC1` [Example 219, 2,5-Dioxopyrrolidin-1-yl 4-(2-oxopyrrolidin-1-yl)piperidine-1-carboxylate], the inhibition at 10 µM is below 25% in assay [5], 25 to 75% in assay [6] and below 25% in assay [7].

As to `O=C(ON1C(=O)CCC1=O)N1CCC(N2CCCCC2=O)CC1` [Example 220, 2,5-Dioxopyrrolidin-1-yl 4-(2-oxopiperidin-1-yl)piperidine-1-carboxylate], the inhibition at 10 µM in assay [5] was below 25%; in assay [6], 25 to 75%; in assay [7], below 25%.
